IC50 data for 38 compounds are collected here from ChEMBL document CHEMBL3352306, “Synthesis and antitumor activity of feruloyl and caffeoyl derivatives” (Bioorg Med Chem Lett, 2014).

The structures appear in SMILES notation. pIC50: −log10 of the molar value.

Common to all, as to assay type: functional, cell-based
A short description of assay [1]: Antitumor activity against human SGC7901 cells assessed as inhibition of cell growth by MTT assay. Conditions: SGC-7901. On the technique in general: Formazan colour is commonly taken as a measure of viable cells.
Assay [2] deals with HepG2. In words: Antitumor activity against human HepG2 cells assessed as inhibition of cell growth by MTT assay.
A short description of assay [3]: Antitumor activity against human HL60 cells assessed as inhibition of cell growth by MTT assay. Conditions: HL-60.
Assay [4] concerns BeWo. In words: Antitumor activity against human Bewo cells assessed as inhibition of cell growth by MTT assay.
For assay [5], the system named is SiHa. In words: Antitumor activity against human SiHa cells assessed as inhibition of cell growth by MTT assay.
In assay [6] the test system is HeLa. In words: Antitumor activity against human HeLa cells assessed as inhibition of cell growth by MTT assay.

With `O=C(/C=C/c1ccc(O)c(O)c1)O[C@H]1C[C@@](O)(C(=O)O)C[C@H](O)[C@@H]1O`, the negative logarithm of the IC50 (pIC50) in assay [1], in assay [2] and in assay [3] was less than 4.00 in each case.
Take `CC1(C)C2CCC1(C)C(OC(=O)/C=C/c1cc(O)c(O)c(Br)c1)C2` (stereo unspecified): the pIC50 in assay [4] was 4.70; in assay [5], 4.54; in assay [6], 4.64; in assay [3], 4.82.
Take `CC1(C)C2CCC1(C)C(OC(=O)/C=C/c1ccc(O)c(O)c1[N+](=O)[O-])C2` (stereo unspecified): the negative-log IC50 (pIC50) was 5.03 in assay [4], 4.29 in assay [5], 4.86 in assay [6] and 4.28 in assay [3].
Turning to `CC(C)(C)OC(=O)/C=C/c1ccc(O)c(O)c1`, the pIC50 was 5.46 in assay [4]; 4.38 in assay [5]; 4.10 in assay [1]; 4.78 in assay [6]; 4.16 in assay [2]; 5.10 in assay [3].
For `COc1c(O)ccc(/C=C/C(=O)NC23CC4CC(CC(C4)C2)C3)c1[N+](=O)[O-]`, the negative-log IC50 (pIC50) in assay [4] was 4.57; in assay [5], 4.41; in assay [6] it was 4.04; in assay [3] it was 4.14.
The like results for `COc1cc(/C=C/C(=O)NC23CC4CC(CC(C4)C2)C3)cc(Br)c1O` were, in that order, 4.38, 4.08, less than 4.00 and 4.30.
For `CCCCCCCCOC(=O)/C=C/c1ccc(O)c(O)c1`, the pIC50 is 4.88 in assay [4]; 4.34 in assay [5]; 4.25 in assay [1]; 4.46 in assay [6]; 4.27 in assay [2]; 5.08 in assay [3].
For the compound `C#CCOC(=O)/C=C/c1ccc(O)c(O)c1`, the pIC50 is 5.05 in assay [4]; 4.41 in assay [5]; less than 4.00 in assay [1]; 4.72 in assay [6]; less than 4.00 in assay [2]; 4.91 in assay [3].
For the compound `O=C(/C=C/c1ccc(O)c(O)c1)OC12CC3CC(CC(C3)C1)C2`, the pIC50 in assay [4] was less than 4.00; in assay [5], less than 4.00; in assay [1], 4.53; in assay [6], less than 4.00; in assay [2] it was 4.52; in assay [3] it was 5.09.
In the case of `O=C(/C=C/c1ccc(O)c(O)c1[N+](=O)[O-])OCCc1ccccc1`, the pIC50 in assay [4] is 5.36; in assay [5], 4.77; in assay [6], 4.96; in assay [3] it was 4.74.
Turning to `CCOC(=O)/C=C/c1ccc(O)c(O)c1` [ETHYL CAFFEATE], the negative logarithm of the IC50 (pIC50) in assay [4] was 5.21; in assay [5], 4.47; in assay [1], less than 4.00; in assay [6] it was 4.63; in assay [2], 4.19; in assay [3], 5.05.
As to `COc1cc(/C=C/C(=O)OC23CC4CC(CC(C4)C2)C3)ccc1O`, the pIC50 in assay [4] was 4.15; in assay [5], less than 4.00; in assay [6], 4.22; in assay [3], 4.03.
As for `O=C(/C=C/c1cc(O)c(O)c(Cl)c1)OCCc1ccccc1`, the pIC50 in assay [1] was 5.09; in assay [3], 5.15.
In the case of `CC1(C)C2CCC1(C)C(OC(=O)/C=C/c1ccc(O)c(O)c1)C2` (stereo unspecified), the pIC50 in assay [4] was 4.45; in assay [5] it was 4.13; in assay [1] it was 4.92; in assay [6] it was 4.69; in assay [2], 4.50; in assay [3] it was 5.47.
Turning to `O=C(/C=C/c1ccc(O)c(O)c1)OCCc1ccccc1` [CAFFEIC ACID PHENETHYL ESTER], the negative logarithm of the IC50 (pIC50) in assay [4] is 5.53; in assay [5], 4.17; in assay [1], 4.85; in assay [6] it was 4.42; in assay [2], 4.39; in assay [3] it was 4.78.
Consider `O=C(/C=C/c1ccc(O)c(O)c1)NC12CC3CC(CC(C3)C1)C2`, for which the pIC50 in assay [4] is 5.96; in assay [5], 4.38; in assay [1], 4.53; in assay [6], 4.99; in assay [2], 4.52; in assay [3], 5.09.
For the compound `COc1cc(/C=C/C(=O)NC23CC4CC(CC(C4)C2)C3)ccc1O`, the pIC50 in assay [4] was less than 4.00; in assay [5], 4.17; in assay [6] it was less than 4.00; in assay [3], less than 4.00.
With `COc1cccc2c1C(=O)c1c(O)c3c(c(O)c1C2=O)C[C@@](O)(C(=O)CO)C[C@@H]3O[C@H]1C[C@H](N)[C@H](O)[C@H](C)O1` [DOXORUBICIN], the pIC50 in assay [4] is 5.97; in assay [5], 5.69; in assay [6], 6.48; in assay [3] it was 6.38.
`CCC(C)OC(=O)/C=C/c1ccc(O)c(O)c1` (stereo unspecified): the pIC50 in assay [4] is 5.50; in assay [5] it was 4.47; in assay [1], less than 4.00; in assay [6], 4.86; in assay [2], 4.02; in assay [3], 4.90.
With `O=C(/C=C/c1cc(O)c(O)c(Cl)c1)NC12CC3CC(CC(C3)C1)C2`, the pIC50 in assay [4] was 4.17; in assay [5], 4.72; in assay [6], 4.30; in assay [3] it was 4.45.
Take `O=C(/C=C/c1cc(O)c(O)c(Br)c1)OCCc1ccccc1`: the pIC50 is 5.08 in assay [4]; 4.55 in assay [5]; 5.17 in assay [1]; 4.76 in assay [6]; 5.35 in assay [2]; 5.07 in assay [3].
Turning to `O=C(/C=C/c1ccc(O)c(O)c1)OCc1ccccc1` [BENZYL CAFFEATE], the negative logarithm of the IC50 (pIC50) in assay [4] was 4.55; in assay [5], 4.13; in assay [1] it was 4.15; in assay [6], 4.63; in assay [2], 4.07; in assay [3], 5.10.
For the compound `CCCCCCCOC(=O)/C=C/c1ccc(O)c(O)c1`, the pIC50 in assay [4] was 5.56; in assay [5], 4.45; in assay [1] it was 4.47; in assay [6] it was 4.67; in assay [2] it was 4.35; in assay [3], 5.35.
As to `COC(=O)/C=C/c1ccc(O)c(O)c1` [METHYLCAFFEATE], the pIC50 in assay [4] was 4.76; in assay [5] it was 4.22; in assay [1], less than 4.00; in assay [6] it was 4.28; in assay [2], 4.09; in assay [3] it was 4.91.
For the compound `O=C(/C=C/c1ccc(O)c(O)c1)OC1CCCCC1`, the pIC50 in assay [4] was 5.56; in assay [5], 4.29; in assay [1], 4.02; in assay [6], 4.62; in assay [2], 4.34; in assay [3], 5.08.
With `O=C(/C=C/c1ccc(O)c(O)c1)Oc1ccc2ccccc2c1`, the pIC50 in assay [4] is 6.44; in assay [5], 4.40; in assay [1], 4.35; in assay [6] it was 5.09; in assay [2], 4.83; in assay [3], 5.47.
On to `CC1(C)C2CCC1(C)C(OC(=O)/C=C/c1cc(O)c(O)c(Cl)c1)C2` (stereo unspecified), for which the pIC50 in assay [4] was 4.28; in assay [5] it was 4.47; in assay [1], 4.16; in assay [6], 4.41; in assay [3], 4.73.
`COc1cc(/C=C/C(=O)NC23CC4CC(CC(C4)C2)C3)cc(Cl)c1O`: the pIC50 was 4.35 in assay [4], 4.46 in assay [5], 4.01 in assay [6] and 4.17 in assay [3].
Turning to `O=C(/C=C/c1ccc(O)c(O)c1)OCCCCc1ccccc1`, the pIC50 in assay [4] is 5.24; in assay [5] it was 4.05; in assay [1] it was 4.40; in assay [6], 4.50; in assay [2], 4.31; in assay [3], 4.95.
With `CC(C)(COC(=O)/C=C/c1ccc(O)c(O)c1)[N+](=O)[O-]`, the pIC50 in assay [4] was 5.14; in assay [5] it was 4.52; in assay [1], less than 4.00; in assay [6], 4.63; in assay [2], 4.42; in assay [3], 5.03.
For the compound `O=C(/C=C/c1ccc(O)c(O)c1)Oc1ccccc1`, the pIC50 is 4.51 in assay [4]; 4.28 in assay [5]; 4.04 in assay [1]; 4.53 in assay [6]; 4.29 in assay [2]; 4.97 in assay [3].
With `COc1cc(/C=C/C(=O)NC23CC4CC(CC(C4)C2)C3)cc([N+](=O)[O-])c1O`, the negative-log IC50 (pIC50) in assay [4] is 4.17; in assay [5], 4.23; in assay [6], 4.18; in assay [3] it was 4.73.
For `CCCCCCCCCCCCCCCCCCOC(=O)/C=C/c1ccc(O)c(O)c1`, the pIC50 in assay [4] was less than 4.00; in assay [5], less than 4.00; in assay [1] it was 4.76; in assay [6], less than 4.00; in assay [2], 5.31; in assay [3], 4.99.
As to `CCCOC(=O)/C=C/c1ccc(O)c(O)c1`, the pIC50 in assay [4] was 5.29; in assay [5] it was 4.35; in assay [1], less than 4.00; in assay [6] it was 4.54; in assay [2], less than 4.00; in assay [3], 4.93.
Consider `O=C(/C=C/c1cc(O)c(O)c(Br)c1)NC12CC3CC(CC(C3)C1)C2`, for which the pIC50 is 4.22 in assay [4], less than 4.00 in assay [5], 4.48 in assay [6] and less than 4.00 in assay [3].
For the compound `CC(C)OC(=O)/C=C/c1ccc(O)c(O)c1`, the pIC50 in assay [4] was 5.23; in assay [5], 4.32; in assay [1], 4.01; in assay [6] it was 4.52; in assay [2] it was 4.04; in assay [3], 4.93.
On to `CCCCCCC(C)OC(=O)/C=C/c1ccc(O)c(O)c1` (stereo unspecified), for which the pIC50 was 6.39 in assay [4]; 4.30 in assay [5]; 4.76 in assay [1]; 4.42 in assay [6]; 4.62 in assay [2]; 5.29 in assay [3].
On to `C=CCOC(=O)/C=C/c1ccc(O)c(O)c1`, for which the pIC50 in assay [4] is 5.06; in assay [5] it was 4.51; in assay [1] it was 4.05; in assay [6], 4.17; in assay [2] it was less than 4.00; in assay [3] it was 4.94.

In general, pIC50 refers to the negative decadic logarithm of the IC50, by convention in mol/L.
